ChEMBL document CHEMBL3132747, “Design and synthesis of a novel series of N,4-diphenylpyrimidin-2-amine derivatives as potent and selective PI3K inhibitors” (Medchemcomm, 2014)

Experiments:
[1] = test system: MCF7; assay: Anticancer activity against human MCF7 cells by MTT assay; type: functional, cell-based
[2] = test system: A549; assay: Anticancer activity against human A549 cells by MTT assay; type: functional, cell-based
[3] = test system: HeLa; assay: Anticancer activity against human HeLa cells by MTT assay; type: functional, cell-based
[4] = test system: HepG2; assay: Anticancer activity against human HepG2 cells by MTT assay; type: functional, cell-based
[5] = biological target: Phosphatidylinositol 4,5-bisphosphate 3-kinase catalytic subunit beta isoform (Homo sapiens, UniProt P42338); assay: Inhibition of human PI3Kbeta
Sequence of Phosphatidylinositol 4,5-bisphosphate 3-kinase catalytic subunit beta isoform (P42338 whole entry, canonical isoform): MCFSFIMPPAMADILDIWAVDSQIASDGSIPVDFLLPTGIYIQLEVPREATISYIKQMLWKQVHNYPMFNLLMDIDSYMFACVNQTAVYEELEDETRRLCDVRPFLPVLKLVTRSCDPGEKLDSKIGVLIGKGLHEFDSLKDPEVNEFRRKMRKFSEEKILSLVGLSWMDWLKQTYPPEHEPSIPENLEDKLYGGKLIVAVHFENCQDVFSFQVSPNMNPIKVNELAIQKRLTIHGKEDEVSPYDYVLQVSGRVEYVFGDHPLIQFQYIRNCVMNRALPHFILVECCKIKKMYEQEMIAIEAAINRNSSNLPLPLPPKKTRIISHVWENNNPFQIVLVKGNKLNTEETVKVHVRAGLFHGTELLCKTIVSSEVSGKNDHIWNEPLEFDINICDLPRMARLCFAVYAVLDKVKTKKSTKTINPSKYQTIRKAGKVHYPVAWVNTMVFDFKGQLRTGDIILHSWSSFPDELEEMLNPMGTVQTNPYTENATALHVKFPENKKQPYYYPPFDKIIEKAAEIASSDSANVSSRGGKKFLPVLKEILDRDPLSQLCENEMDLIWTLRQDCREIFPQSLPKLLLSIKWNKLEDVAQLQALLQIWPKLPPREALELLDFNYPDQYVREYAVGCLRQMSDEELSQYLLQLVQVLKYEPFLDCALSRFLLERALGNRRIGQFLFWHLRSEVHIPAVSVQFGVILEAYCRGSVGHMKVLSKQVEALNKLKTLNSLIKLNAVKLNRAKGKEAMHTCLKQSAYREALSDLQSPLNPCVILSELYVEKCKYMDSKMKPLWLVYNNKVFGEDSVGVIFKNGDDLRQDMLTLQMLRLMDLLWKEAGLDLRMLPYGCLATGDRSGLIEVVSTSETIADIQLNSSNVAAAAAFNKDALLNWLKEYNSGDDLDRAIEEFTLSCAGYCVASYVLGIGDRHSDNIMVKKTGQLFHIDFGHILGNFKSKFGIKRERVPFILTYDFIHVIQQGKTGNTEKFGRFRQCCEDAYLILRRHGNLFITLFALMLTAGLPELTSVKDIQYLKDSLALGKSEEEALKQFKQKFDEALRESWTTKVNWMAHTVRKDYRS

[6] = biological target: Phosphatidylinositol 4,5-bisphosphate 3-kinase catalytic subunit alpha isoform (Homo sapiens, UniProt P42336); assay: Inhibition of human PI3Kalpha
Sequence of Phosphatidylinositol 4,5-bisphosphate 3-kinase catalytic subunit alpha isoform (P42336 whole entry, canonical isoform): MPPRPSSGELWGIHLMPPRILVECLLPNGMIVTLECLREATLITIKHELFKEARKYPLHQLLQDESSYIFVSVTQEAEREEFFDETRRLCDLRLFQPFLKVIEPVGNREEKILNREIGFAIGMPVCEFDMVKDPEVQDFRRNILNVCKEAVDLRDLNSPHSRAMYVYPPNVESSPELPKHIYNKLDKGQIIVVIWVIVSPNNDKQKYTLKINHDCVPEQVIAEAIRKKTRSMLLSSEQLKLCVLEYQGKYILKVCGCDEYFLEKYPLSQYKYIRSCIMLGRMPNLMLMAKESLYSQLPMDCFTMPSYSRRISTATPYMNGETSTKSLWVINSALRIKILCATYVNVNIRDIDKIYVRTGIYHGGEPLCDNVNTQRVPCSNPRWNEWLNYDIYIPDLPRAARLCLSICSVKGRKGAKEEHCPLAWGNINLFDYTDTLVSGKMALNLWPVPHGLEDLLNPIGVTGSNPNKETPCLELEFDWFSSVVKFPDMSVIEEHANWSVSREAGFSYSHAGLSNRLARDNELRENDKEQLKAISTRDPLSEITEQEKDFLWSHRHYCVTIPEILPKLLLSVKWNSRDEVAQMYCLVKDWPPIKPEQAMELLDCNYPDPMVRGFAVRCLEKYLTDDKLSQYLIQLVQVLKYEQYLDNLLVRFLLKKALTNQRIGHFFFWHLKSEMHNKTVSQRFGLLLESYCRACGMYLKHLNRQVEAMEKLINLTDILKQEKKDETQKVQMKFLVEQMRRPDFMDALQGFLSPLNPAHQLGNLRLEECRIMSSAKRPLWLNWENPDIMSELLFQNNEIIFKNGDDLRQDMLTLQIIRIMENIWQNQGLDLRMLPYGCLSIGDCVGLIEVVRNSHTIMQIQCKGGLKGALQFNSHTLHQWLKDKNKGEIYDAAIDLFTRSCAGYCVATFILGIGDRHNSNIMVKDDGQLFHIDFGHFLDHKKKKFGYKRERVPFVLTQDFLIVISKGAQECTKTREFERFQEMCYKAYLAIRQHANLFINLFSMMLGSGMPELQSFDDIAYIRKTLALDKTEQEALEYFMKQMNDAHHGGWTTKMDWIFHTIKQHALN

[7] = biological target: Phosphatidylinositol 4,5-bisphosphate 3-kinase catalytic subunit gamma isoform (Homo sapiens, UniProt P48736); assay: Inhibition of human PI3Kgamma
Sequence of Phosphatidylinositol 4,5-bisphosphate 3-kinase catalytic subunit gamma isoform (P48736 whole entry, canonical isoform): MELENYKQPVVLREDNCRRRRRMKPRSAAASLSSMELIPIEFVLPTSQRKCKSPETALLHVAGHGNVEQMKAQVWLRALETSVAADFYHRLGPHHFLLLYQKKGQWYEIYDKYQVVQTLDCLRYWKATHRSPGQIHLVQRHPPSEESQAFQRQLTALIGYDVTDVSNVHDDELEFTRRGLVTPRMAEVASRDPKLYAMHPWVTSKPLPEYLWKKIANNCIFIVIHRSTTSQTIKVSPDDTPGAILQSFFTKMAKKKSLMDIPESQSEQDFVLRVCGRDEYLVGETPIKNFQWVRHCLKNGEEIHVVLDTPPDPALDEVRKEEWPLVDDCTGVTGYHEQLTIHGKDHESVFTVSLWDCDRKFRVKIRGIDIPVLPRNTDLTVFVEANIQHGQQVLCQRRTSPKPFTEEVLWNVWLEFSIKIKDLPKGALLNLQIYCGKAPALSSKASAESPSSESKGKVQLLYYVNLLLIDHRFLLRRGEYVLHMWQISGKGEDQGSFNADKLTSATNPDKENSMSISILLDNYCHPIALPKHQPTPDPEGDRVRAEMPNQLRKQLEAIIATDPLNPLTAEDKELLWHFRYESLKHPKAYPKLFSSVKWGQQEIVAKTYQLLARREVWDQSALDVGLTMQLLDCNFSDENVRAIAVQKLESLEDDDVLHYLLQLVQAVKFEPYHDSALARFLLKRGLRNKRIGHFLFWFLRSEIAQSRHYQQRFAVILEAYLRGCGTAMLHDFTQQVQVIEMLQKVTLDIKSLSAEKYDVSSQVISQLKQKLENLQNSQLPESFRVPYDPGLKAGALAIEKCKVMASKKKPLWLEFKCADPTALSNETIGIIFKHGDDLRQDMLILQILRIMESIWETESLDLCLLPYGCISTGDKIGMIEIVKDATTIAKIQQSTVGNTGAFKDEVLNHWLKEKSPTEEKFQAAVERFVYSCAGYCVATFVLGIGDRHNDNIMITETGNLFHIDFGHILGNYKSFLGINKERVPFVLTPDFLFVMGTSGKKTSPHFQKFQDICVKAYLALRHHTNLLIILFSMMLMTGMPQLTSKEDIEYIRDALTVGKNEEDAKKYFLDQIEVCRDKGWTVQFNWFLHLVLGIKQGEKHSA

[8] = test system: A549; assay: Induction of apoptosis in human A549 cells assessed as late necrotic cells at 16 uM after 48 hrs using annexin V and propidium iodide staining by flow cytometry (reference value: 6.00 %); type: functional
[9] = test system: A549; assay: Induction of apoptosis in human A549 cells assessed as late apoptotic cells at 16 uM after 48 hrs using annexin V and propidium iodide staining by flow cytometry (reference value: 9.79 %); type: functional
[10] = test system: A549; assay: Induction of apoptosis in human A549 cells assessed as apoptotic cells at 16 uM after 48 hrs using annexin V and propidium iodide staining by flow cytometry (reference value: 5.37 %); type: functional
[11] = test system: A549; assay: Induction of apoptosis in human A549 cells assessed as viable cells at 16 uM after 48 hrs using annexin V and propidium iodide staining by flow cytometry (reference value: 78.8 %); type: functional; settings: A549, 48 h, read-out: Activity
[12] = test system: A549; assay: Induction of apoptosis in human A549 cells assessed as late necrotic cells at 4 uM after 48 hrs using annexin V and propidium iodide staining by flow cytometry (reference value: 6.00 %); type: functional
[13] = test system: A549; assay: Induction of apoptosis in human A549 cells assessed as late apoptotic cells at 4 uM after 48 hrs using annexin V and propidium iodide staining by flow cytometry (reference value: 9.79 %); type: functional
[14] = test system: A549; assay: Induction of apoptosis in human A549 cells assessed as apoptotic cells at 4 uM after 48 hrs using annexin V and propidium iodide staining by flow cytometry (reference value: 5.37 %); type: functional
[15] = test system: A549; assay: Induction of apoptosis in human A549 cells assessed as viable cells at 4 uM after 48 hrs using annexin V and propidium iodide staining by flow cytometry (reference value: 78.8 %); type: functional; settings: A549, 48 h, read-out: Activity
[16] = test system: A549; assay: Induction of apoptosis in human A549 cells assessed as late necrotic cells at 1 uM after 48 hrs using annexin V and propidium iodide staining by flow cytometry (reference value: 6.00 %); type: functional
[17] = test system: A549; assay: Induction of apoptosis in human A549 cells assessed as late apoptotic cells at 1 uM after 48 hrs using annexin V and propidium iodide staining by flow cytometry (reference value: 9.79 %); type: functional
[18] = test system: A549; assay: Induction of apoptosis in human A549 cells assessed as apoptotic cells at 1 uM after 48 hrs using annexin V and propidium iodide staining by flow cytometry (reference value: 5.37 %); type: functional
[19] = test system: A549; assay: Induction of apoptosis in human A549 cells assessed as viable cells at 1 uM after 48 hrs using annexin V and propidium iodide staining by flow cytometry (reference value: 78.8 %); type: functional; settings: A549, 48 h, read-out: Activity
[20] = biological target: Tyrosine-protein kinase JAK2 (Homo sapiens, UniProt O60674); assay: Inhibition of JAK2 (unknown origin)
[21] = biological target: Cyclin-dependent kinase 2 (Homo sapiens, UniProt P24941); assay: Inhibition of CDK2 (unknown origin)
[22] = biological target: Epidermal growth factor receptor (Homo sapiens, UniProt P00533); assay: Inhibition of EGFR (unknown origin)
Sequence of Epidermal growth factor receptor (P00533 whole entry): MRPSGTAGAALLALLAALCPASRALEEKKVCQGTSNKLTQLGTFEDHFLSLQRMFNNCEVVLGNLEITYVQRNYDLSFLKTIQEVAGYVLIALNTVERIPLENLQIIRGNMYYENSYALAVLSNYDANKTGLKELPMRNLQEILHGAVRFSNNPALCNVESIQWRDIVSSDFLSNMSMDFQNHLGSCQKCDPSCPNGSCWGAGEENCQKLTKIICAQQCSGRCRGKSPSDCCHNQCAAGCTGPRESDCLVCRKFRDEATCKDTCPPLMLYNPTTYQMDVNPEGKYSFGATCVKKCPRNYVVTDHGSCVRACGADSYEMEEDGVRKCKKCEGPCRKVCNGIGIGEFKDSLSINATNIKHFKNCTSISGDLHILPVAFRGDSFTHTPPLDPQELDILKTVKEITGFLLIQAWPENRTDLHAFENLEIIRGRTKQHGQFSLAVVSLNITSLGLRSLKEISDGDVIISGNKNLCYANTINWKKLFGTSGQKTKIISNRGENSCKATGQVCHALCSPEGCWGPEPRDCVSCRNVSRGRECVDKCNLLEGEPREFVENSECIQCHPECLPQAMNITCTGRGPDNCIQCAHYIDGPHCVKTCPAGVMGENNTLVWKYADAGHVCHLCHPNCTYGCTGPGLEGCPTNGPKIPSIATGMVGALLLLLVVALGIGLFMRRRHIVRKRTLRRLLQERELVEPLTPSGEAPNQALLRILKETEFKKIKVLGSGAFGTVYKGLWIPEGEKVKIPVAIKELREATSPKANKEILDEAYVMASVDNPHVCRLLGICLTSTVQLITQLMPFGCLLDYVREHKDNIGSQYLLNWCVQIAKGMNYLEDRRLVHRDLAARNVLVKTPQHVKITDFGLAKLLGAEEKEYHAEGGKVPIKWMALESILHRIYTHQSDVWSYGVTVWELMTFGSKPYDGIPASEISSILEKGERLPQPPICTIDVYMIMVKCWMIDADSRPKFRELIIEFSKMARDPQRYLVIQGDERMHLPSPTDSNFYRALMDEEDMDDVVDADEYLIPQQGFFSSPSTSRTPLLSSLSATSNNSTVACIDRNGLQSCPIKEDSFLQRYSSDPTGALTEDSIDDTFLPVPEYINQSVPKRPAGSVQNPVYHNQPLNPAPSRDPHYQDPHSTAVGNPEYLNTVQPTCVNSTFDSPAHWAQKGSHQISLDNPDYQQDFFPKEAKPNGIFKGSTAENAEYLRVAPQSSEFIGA

Row | Structure (SMILES) | IC50 [1] [µM] | IC50 [2] [µM] | IC50 [3] [µM] | IC50 [4] [µM] | IC50 [5] [µM] | IC50 [6] [µM] | IC50 ([7]; read-out: IC50) [µM] | IC50 ([7]; read-out: pIC50 (converted)) [µM] | further results
1 | COc1ccc(-c2ccnc(Nc3ccc(Cl)cc3)n2)cc1 | 0.81 | 20.9 | 0.31 | 4.5 | 0.603 | 0.552 | 0.167 | 0.167 | 
2 | COc1ccc(-c2ccnc(Nc3ccc(Cl)cc3Cl)n2)cc1 | 4.17 | 7.33 | 23 | 0.19 | 0.839 | 0.738 | 0.235 | 0.235 | 
3 | COc1cccc(Nc2nccc(-c3ccc(Br)cc3)n2)c1 | 278 | 82.7 | 153 | 148 | 0.977 | > 1 | 0.357 | 0.357 | 
4 | Clc1ccc(Nc2nccc(-c3ccc(Br)cc3)n2)cc1 | 4.18 | 6.11 | 36.7 | 47.5 | 0.946 | 0.914 | 0.302 | 0.302 | 
5 | Cc1cccc(Nc2nccc(-c3ccc(Br)cc3)n2)c1 | 210 | 63.2 | 71 | 74.6 | > 1 | 0.894 | 0.342 | 0.342 | 
6 | CC(C)c1ccccc1Nc1nccc(-c2ccc(Br)cc2)n1 | 111 | 3.71 | 11.5 | 7.03 | 0.874 | 0.792 | 0.313 | 0.313 | 
7 | COc1ccc(-c2ccnc(Nc3cccc(OC)c3)n2)cc1 | 3.45 | 6.53 | 0.55 | 13.9 | 0.729 | 0.615 | 0.195 | 0.195 | 
8 | Nc1nc(N)c2nc(-c3cccc(O)c3)cnc2n1 | 1.03 | 0.49 | 0.15 | 0.82 |  |  |  |  | 
9 | COc1cccc(Nc2nccc(-c3ccc(F)cc3)n2)c1 | 412 | 35.9 | 145 | 128 | > 1 | 0.88 | 0.334 | 0.334 | 
10 | O=[N+]([O-])c1ccc(Nc2nccc(-c3ccc(Br)cc3)n2)cc1 | 681 | 76 | 25.7 | 43 | 0.961 | 0.946 | 0.265 | 0.265 | 
11 | Clc1ccc(Nc2nccc(-c3ccc(Cl)c(Cl)c3)n2)c(Cl)c1 | 45.6 | 26 | 23 | 28.4 | 0.926 | 0.836 | 0.25 | 0.25 | 
12 | Cc1cccc(Nc2nccc(-c3ccc(Cl)cc3Cl)n2)c1 | 249 | 18.4 | 7.66 | 13.2 | 0.851 | 0.813 | 0.274 | 0.274 | 
13 | COc1cc(Nc2nccc(-c3ccc(Cl)cc3)n2)cc(OC)c1OC | 3.15 | 0.36 | 0.29 | 0.09 | 0.373 | 0.341 | ≤ 0.065 |  | Activity [8]: 2.19%; Activity [9]: 39.4%; Activity [10]: 13.5%; viability at 16 µM [11]: 44.9%; Activity [12]: 4.62%; Activity [13]: 32.8%; Activity [14]: 6.53%; viability at 4 µM [15]: 56.1%; Activity [16]: 3.66%; Activity [17]: 25%; Activity [18]: 8.47%; viability at 1 µM [19]: 62.9%; IC50 [20]: 21.5 µM; IC50 [21]: 18.8 µM; IC50 [22]: 2.15 µM
14 | COc1ccc(-c2ccnc(Nc3ccc([N+](=O)[O-])cc3)n2)cc1 | 0.77 | 2.73 | 0.98 | 1.04 | 0.537 | 0.527 | 0.143 | 0.143 | 
15 | Clc1ccc(Nc2nccc(-c3ccc(Cl)cc3Cl)n2)c(Cl)c1 | 3.18 | 11.6 | 1.56 | 8.08 | 0.799 | 0.772 | 0.268 | 0.268 | 
16 | O=[N+]([O-])c1ccc(Nc2nccc(-c3ccc(Cl)c(Cl)c3)n2)cc1 | 3.51 | 0.72 | 1.84 | 0.5 | 0.573 | 0.503 | 0.154 | 0.154 | 
17 | O=[N+]([O-])c1ccc(Nc2nccc(-c3ccc(Cl)cc3Cl)n2)cc1 | 192 | 119 | 168 | 99.3 | 0.938 | 0.953 | 0.386 | 0.386 | 
18 | COc1cccc(Nc2nccc(-c3ccc(Cl)c(Cl)c3)n2)c1 | 21 | 6 | 4.97 | 3.37 | 0.741 | 0.625 | 0.217 | 0.217 | 
19 | O=[N+]([O-])c1ccc(Nc2nccc(-c3ccc(F)cc3)n2)cc1 | 0.4 | 84 | 3.51 | 7.95 | 0.863 | 0.679 | 0.247 | 0.247 | 
20 | Cc1ccc(-c2ccnc(Nc3ccc(Cl)cc3Cl)n2)cc1 | > 1000 | 164 | 91.5 | 344 | > 1 | > 1 | 0.371 | 0.371 | 
21 | Clc1ccc(Nc2nccc(-c3ccc(Br)cc3)n2)c(Cl)c1 | 2.49 | 3.78 | 1.08 | 0.72 | 0.673 | 0.591 | 0.231 | 0.231 | 
22 | COc1cccc(Nc2nccc(-c3ccc(Cl)cc3Cl)n2)c1 | 192 | 32.2 | 76.4 | 96.9 | 0.893 | 0.851 | 0.278 | 0.278 | 
